What was measured:
[1] = tested on: caudal fin keratinocytes (dfMTs); assay: dfMT formation (detyrosinated fasciculated looped microtubules) in zebrafish caudal fin keratinocytes; assay type: in vivo
Experimental: The stock solution was divided into 20-30 μl aliquots and stored at −20 °C until use (maximal 6 months). Immediately prior to use, paclitaxel was diluted in Ringer's solution and added to dechorionated larval zebrafish. The larval fish were placed individually or in small groups into wells of a 12-well plate containing the treatment solutions. The control group was 0.05% DMSO. Plates were incubated at 28.5 °C and protected from light. Treatment lengths are indicated in the Drawings, Description of the Drawings, and Examples where appropriate. […] EMD534085, Eg5 inhibitor (MedChemExpress, Cat. No. HY-15000) was diluted in 100% DMSO to make a 10 mM stock solution and stored at −20 °C. […] The solutions were exchanged every 48 hr.
Larval fish were transferred into […] glass vials and fixed in 4% paraformaldehyde (PFA)/1× Phosphate-buffered saline (PBS) for 1.5 hr at room temperature, with gentle rocking. Following a 5-minute incubation in 1×PBS+0.1% Tween-20 (PBST), zebrafish were permeabilized in 1×PBS+0.1% Triton X-100 for 10-30 min. Larval fish were transferred into 2 ml reaction tubes and incubated in blocking buffer (1×PBST+5% BSA) for 30 min at room temperature, with rocking. Larval fish were further incubated overnight in antibody solution (Millipore Sigma, Cat. No. AB3201, 1:300 rabbit anti-GluTub; Sigma, Cat No. T6793, 1:500 mouse anti-acetylated tubulin) in blocking buffer at 4 °C, on a rotator. The next morning, larval fish were transferred into 6-well plates and washed 4×15 min in 1×PBST at room temperature, with rocking. This was followed by incubation in secondary antibody (goat anti-rabbit Cy5, Abcam, Cat. No. ab97077; goat anti-mouse Cy3, Abcam, Cat. No. ab97035) and 1:10,000 Hoechst 33342 (ThermoFisher Scientific, Cat. No. 62249, 20 mM solution) in blocking buffer for 1 hr at room temperature, with rocking. Fish were covered to avoid bleaching. Fish were washed for 4×15 min in 1×PBST at room temperature, with rocking, and immediately mounted for imaging on glass bottom petri dishes (Spectrum Laboratory Products, Cat. No. 750-10403-UE) using 1% agarose (Thermo Fisher Scientific, Cat. No. 16520050). A 1:200 dilution was used for mouse alpha-tubulin antibody (Proteintech, Cat. No. 66031-1) and a 1:1,000 dilution of donkey anti-mouse IgG Alexa488 (ThermoFisher Scientific, Cat. No. A-21202) for secondary detection. For Nox1 immunostaining, a 1:300 dilution of primary antibody (Anti-NOX1 Rabbit Polyclonal Antibody, Avantar, Cat. No. 102164-796) and a 1:1,000 dilution of secondary goat anti-rabbit Cy2 (Abcam, Cat. No. ab6940) antibody was used. Eg5 antibody (Abcam, Cat. No. 61199) was used at a 1:100 and secondary goat anti-rabbit Cy2 (Abcam, Cat. No. ab6940) at 1:1,000 dilution.
CRISPR oligos targeting kif11 were designed using the IDT CRISPR design tool (https://www.idtdna.com/site/order/designtool/index/CRISPR_CUSTOM). The oligo (5′-[…] (SEQ ID NO: 21) was designed to anneal within exon 5 of 23 exons total in zebrafish kif11 with expected mutations ~ position 270 bp in the sequenced region using the following primers for PCR amplification: Fwd 5′-[…]-3′ (SEQ ID NO: 22) and Rev 5′-[…]-3′ (SEQ ID NO: 23). The forward primer was used for sequencing and yielded deletions in transiently injected embryos, as shown in example below in which single zebrafish were sequenced (FIG. 10).
The CRISPR oligo was injected using the Alt-R system (IDT, https://www.idtdna.com/pages/technology/crispr/crispr-genome-editing/Alt-R-systems/cas9), which has provided highly reliable and efficient zebrafish knockout results as used herein. The IDT-recommended protocol (below) was used for CRISPR oligo preparations. Fertilized eggs were injected ~15 minutes post fertilization with CRISPR oligos to ensure maximal efficiency.
Cell counting in the caudal fin was performed in three 100 μm^2 boxes in the dorsal, medial and ventral caudal fin (~100 μm from the edge). […]

[2] = tested on: HyPer oxidation in keratinocytes; assay: Compartmentalized HyPer oxidation (nucleus, plasma membrane) in keratinocytes; assay type: in vivo, zebrafish; conditions: paclitaxel, alone or with EMD534085; for nuclear HyPer oxidation: nucleus
Experimental: HyPer fluorescence was measured in the oxidized (505 nm) and unoxidized (420 nm) channels by using the region of interest (ROI) function in ZEN Black (Zeiss) whereby ROIs were selected inside highly magnified mitochondria (HyPer-mito), cytoplasm (HyPer-cyto) or the plasma membrane (HyPer-CAAX). The data was exported, and ratios determined in Excel. H2O2 measurements in zebrafish transiently injected with tp63:Hyper were manually performed by placing spot objects in Imaris 9.5.1 onto individual cells such that the spots extended to the lateral edges. Fluorescence intensities were measured inside the spots and 505 nm/420 nm ratios were subsequently calculated.
These findings supported a role for Eg5 in nuclear X-ROS production as a result of microtubule fasciculation and increased mechanical tension.

[3] = tested on: epidermal keratinocytes (detyrosinated microtubules); assay: Hind paw pad skin GluTub/DAPI histology in mice; assay type: in vivo, mouse; conditions: 24 mg/kg paclitaxel i.p.
Experimental: Paws and back skin were collected at predetermined time points, placed in 10% formalin, and stored overnight at 4 °C. Samples were embedded in paraffin and sectioned at 7 μm, deparaffinized, washed with PBS, and incubated at room temperature for 5 min in 0.1% Triton X-100 in PBS and then blocked for 30 min (5% BSA). Sections were incubated with primary antibody diluted in blocking solution, overnight at 4 °C in a humidity chamber. Following PBS washes, sections were incubated for 1 h at room temperature with a secondary antibody. Tissues were mounted and assessed for staining. Antibodies used were against detyrosinated tubulin Millipore AB3201, p-KIF11 Invitrogen PA5-38647, alpha-tubulin Proteintech 66031-1-Ig, mouse Alexa Fluor 488 Invitrogen A21202, and rabbit Alexa flour 546 Invitrogen A10040. DAPI was used for nuclei counterstaining.
Immunofluorescence staining was performed with a widefield microscopy using a Plan-Apochromatix 100× objective lens (oil immersion, numerical aperture [NA]1.4), 20× and 10× objective lens on inverted Zeiss Axio Observer Z1 using AxioVision 4.8 software. Images were acquired using a monochrome Zeiss Axio Cam MRm CCD camera. Images were processed with the NIH Image J software.
These mice were then sacrificed and the skin of the hind paw pad was fixed in 4% paraformaldehyde, followed by sectioning and staining with 1) anti-GluTub (to detect detyrosinated microtubules) and 2) DAPI to detect nuclei.

[4] = alone or with EMD534085 20 mg/kg x3

SMILES	animals with dfMTs ([1]; 25 μM EMD534085 alone) [%]	number of dfMT-harboring keratinocytes per animal ([1]; EMD534085 alone, 96 hr) [cells/animal]	nuclear HyPer oxidation [2]	plasma membrane HyPer oxidation [2]	number of epidermal keratinocytes with dMT [3, 4]	dfMT-positive keratinocytes ([1]; 100 nM paclitaxel)	animals with dfMTs ([1]; 100 nM paclitaxel, alone or with 25 μM EMD534085) [%]	number of dfMT-harboring keratinocytes per animal ([1]; 100 nM paclitaxel, alone or with 25 μM EMD534085, 96 hr) [cells/animal]	animals with dfMT ([1]; 22 μM paclitaxel, 48 hr)	keratinocytes with dfMTs ([1]; 22 μM paclitaxel, 48 hr) [keratinocytes/100 μm^2]	keratinocytes with dfMTs ([1]; 22 μM paclitaxel, 96 hr) [keratinocytes/100 μm^2]	animals with dfMT ([1]; 22 μM paclitaxel, 96 hr (FIG. 1I))	animals with dfMTs ([1]; 22 μM paclitaxel, alone or with 25 μM EMD534085) [%]	number of dfMT-harboring keratinocytes per animal ([1]; 22 μM paclitaxel, alone or with 25 μM EMD534085, 96 hr) [cells/animal]	dfMT presence ([1]; 3 hr paclitaxel)	GluTub fluorescence [3]	brittle skin / empty regions in the stratum spinosum [3, 4]
CN(C)CCNC(=O)NC[C@H]1CC[C@@H]2[C@H](O1)c1cc(C(F)(F)F)ccc1N[C@H]2c1ccccc1 [EMD534085]	0	0±0	Nuclear HyPer oxidation was reduced upon co-administration of EMD534085	without effects on plasma membrane oxidation	The increase was dampened when paclitaxel was injected with EMD534085												
CC(=O)O[C@H]1C(=O)[C@@]2(C)[C@H]([C@H](OC(=O)c3ccccc3)[C@]3(O)C[C@H](OC(=O)[C@H](O)[C@@H](NC(=O)c4ccccc4)c4ccccc4)C(C)=C1C3(C)C)[C@]1(OC(C)=O)CO[C@@H]1C[C@@H]2O [paclitaxel]			increased oxidation within the nucleus	not at the plasma membrane	an increase with paclitaxel treatment	0.4±0.21 dfMT-positive keratinocytes/100 μm^2	20	0.4±0.21	~ 45%	3.64±1.28	7.7±1.6	~ 90%	65.22	6.957±1.49	never	increased GluTub fluorescence	brittle skin in the stratum spinosum
